The values that follow come from US5747506A, “Isoquinoline compounds, compositions containing them and their pharmaceutical uses” (Novartis AG, priority 1993, dated 1998).

The subject of one assay is SRS-A. Kind of assay: TEST D: Inhibition of SRS-A Production (ovalbumin challenge). The assay is classed as in vivo, guinea-pig. The following applies: 10 mg/kg i.v. 1 minute prior to challenge. The protocol:
TEST D: Inhibition of SRS-A Production Guinea-pigs are passively sensitized 24 hrs. prior to testing by i.v. administration of 1 ml homologous anti-ovalbumin antiserum. Prior to antigen challenge test animals are pre-treated with 0.32 mg/kg propanol i.v. (inhibition of endogenous catecholamines), 3.2 mg/kg, i.v. mepyramine (H1 receptor antagonism) and 3.2 mg/kg, i.v. indomethacin (inhibition of cyclo-oxygenase). Allergen challenge is effected by administration of 32 μg/kg, ovalbumin i.v. and the resultant constrictor response on airways resistance used as a functional read out of SRS-A activity. Separate test groups receive 10 mg/kg, i.v. FPL 55712 (an LTD4 receptor antagonist) 1 minute prior to challenge or test substance at varying dosage, i.v. by infusion, beginning 16 minutes prior to challenge.

Assay [1] concerns SRS-A induced bronchoconstriction. As to the kind of experiment: TEST H experiment 1: Suppression of SRS-A Induced Bronchoconstriction (i.v. infusion). The assay is classed as in vivo, guinea pig (Dunkin-Hartley). As to conditions: FPL 55712 10 mg/kg i.v. The protocol: TEST H: Suppression of SRS-A Induced Bronchoconstriction Guinea pigs (Dunkin-Hartley, male, 400-600 g) are anesthethized with phenobarbital (100 mg/kg i.p.) and pentobarbital (30 mg/kg i.p.) and paralyzed with gallamine (100 mg/kg i.m.) Animals are ventilated via a tracheal cannula (8 ml/kg, 1 Hz) with a mixture of air and oxygen (45:55 v/v). Blood pressure and heart rate are recorded at the carotid artery. Ventilation is monitored by a Fleisch flow transducer in line with the inspiratory circuit. When making measurements of flow, coincident pressure changes in the thorax are monitored directly via an intrathoracic trochar, permitting display of differential pressure relative to the trachea. From this information in relation to flow and differential pressure, resistance [R1 ] and compliance [Cdyn ] are calculated using a digital respiratory analyzer for each respiratory cycle. Test animals are passively sensitized 24 hrs. prior to testing by administration of homologous anti-ovalbumin antiserum (1 ml i.v.). […] Allergen challenge is achieved by administration of ovalbumin (OA) and the resultant bronchoconstrictor response is used as a functional read-out of SRS-A activity. […]

Turning to `CCCc1c(OCC(O)COc2ccc3c(=O)cc(C(=O)O)oc3c2CCC)ccc(C(C)=O)c1O` (centres unmarked) [FPL 55712], the “effect on bronchoconstriction (TEST D)” value with SRS-A is given as “abolition of bronchoconstriction”. Further, the “bronchoconstrictor effect of OA (experiment 1)” value in assay [1] is recorded as “abolished”.
